The record followed here is article PMC10466331, “Fluorescence polarisation activity-based protein profiling for the identification of deoxynojirimycin-type inhibitors selective for lysosomal retaining alpha- and beta-glucosidases” (Chemical Science, 2023).

SMILES strings stand for the structures. Where two headings read alike, the source gives them in different places.

Type in all cases: biochemical
The target in experiment [1] is T1, human recombinant lysosomal α-glucosidase GAA (Myozyme) (Homo sapiens, UniProt P10253).
T1 construct: purchased Genzyme
The experiment in a line: fluorogenic substrate (4MU-α-D-glucopyranoside) assay on rhGAA. The following applies: Table S2, 4-MU alpha glucoside substrate, read-out: IC50 on rhGAA.

The target in experiment [2] is T2, recombinant human GAA (rhGAA, Myozyme) (Homo sapiens, UniProt P10253).
T2 construct: purchased Genzyme
The experiment in a line: competitive FluoPol-ABPP assay on rhGAA with TAMRA-ABP II.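 For all read-outs here: fluorescence polarization read at 540 nm excitation and 590 nm emission, background-corrected, normalized to uninhibited probe labelling as 100% and excess cyclosulfate as 0%.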 The following applies: for GAA FP% (residual FP-signal): library screen, 5 μM inhibitor, 25 nM ABP II.

Experiment [3] deals with T3, ER α-glucosidase GANAB (from Pompe disease Fibroblast lysates) (Homo sapiens, UniProt Q14697).
T3 construct: Cellular homogenates of Pompe fibroblasts (1 mg mL^−1) were used as protein source for GANAB; endogenous in cells; host or cells: Pompe disease fibroblasts (homogenate)
T3 sequence (Q14697 29-944): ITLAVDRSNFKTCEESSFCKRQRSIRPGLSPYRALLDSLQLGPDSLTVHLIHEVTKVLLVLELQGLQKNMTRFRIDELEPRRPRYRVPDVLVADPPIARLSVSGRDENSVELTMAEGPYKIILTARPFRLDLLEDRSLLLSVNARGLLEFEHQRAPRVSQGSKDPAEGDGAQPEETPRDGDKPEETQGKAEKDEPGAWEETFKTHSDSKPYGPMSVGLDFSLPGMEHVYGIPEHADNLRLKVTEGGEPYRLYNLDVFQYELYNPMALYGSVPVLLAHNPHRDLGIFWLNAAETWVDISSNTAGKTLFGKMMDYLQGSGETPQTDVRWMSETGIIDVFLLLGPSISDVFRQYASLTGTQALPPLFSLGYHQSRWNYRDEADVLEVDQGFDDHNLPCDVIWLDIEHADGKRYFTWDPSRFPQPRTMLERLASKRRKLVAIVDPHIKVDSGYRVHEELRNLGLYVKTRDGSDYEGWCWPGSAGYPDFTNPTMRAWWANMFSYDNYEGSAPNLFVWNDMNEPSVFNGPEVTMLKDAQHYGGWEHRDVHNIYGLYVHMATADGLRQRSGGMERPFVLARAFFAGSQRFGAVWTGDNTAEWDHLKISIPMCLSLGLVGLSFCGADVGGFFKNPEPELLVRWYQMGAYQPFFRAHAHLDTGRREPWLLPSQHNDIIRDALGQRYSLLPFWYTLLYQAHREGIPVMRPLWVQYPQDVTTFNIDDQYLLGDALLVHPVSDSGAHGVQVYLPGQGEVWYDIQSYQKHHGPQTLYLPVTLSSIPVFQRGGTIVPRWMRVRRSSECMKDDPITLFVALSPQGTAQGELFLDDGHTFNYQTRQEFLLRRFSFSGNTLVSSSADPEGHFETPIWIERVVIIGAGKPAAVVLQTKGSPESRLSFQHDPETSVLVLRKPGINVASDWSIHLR
T3 sequence (P14314 15-528 partner): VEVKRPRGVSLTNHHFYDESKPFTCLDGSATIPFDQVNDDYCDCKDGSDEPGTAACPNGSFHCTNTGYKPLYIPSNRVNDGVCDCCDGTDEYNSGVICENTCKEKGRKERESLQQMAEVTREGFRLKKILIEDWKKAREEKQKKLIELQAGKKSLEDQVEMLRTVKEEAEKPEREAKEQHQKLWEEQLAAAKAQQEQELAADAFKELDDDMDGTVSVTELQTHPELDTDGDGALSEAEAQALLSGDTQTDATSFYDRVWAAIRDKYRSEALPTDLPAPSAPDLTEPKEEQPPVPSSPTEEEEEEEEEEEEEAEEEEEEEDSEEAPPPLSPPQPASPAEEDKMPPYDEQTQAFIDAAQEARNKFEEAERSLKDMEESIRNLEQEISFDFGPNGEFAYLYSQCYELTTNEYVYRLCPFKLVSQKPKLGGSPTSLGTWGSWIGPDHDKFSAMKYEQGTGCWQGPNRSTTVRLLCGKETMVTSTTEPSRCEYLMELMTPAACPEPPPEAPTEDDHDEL
The experiment in a line: fluorogenic substrate (4MU-α-D-glucopyranoside) assay on GANAB in Pompe fibroblast homogenates.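 Note: inhibitor preincubated 30 min at 37 °C with homogenate, then GANAB activity read after 2 h with 3.0 mM fluorogenic substrate in McIlvaine buffer containing 0.1% BSA.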

[4] abbreviates: Table S2, 4-MU alpha glucoside substrate, read-out: IC50 on GANAB.

As usually defined, the IC50 is the concentration needed to halve the response being measured. Consider `CCCCCCCCCN1C[C@H](O)[C@@H](O)[C@H](O)[C@H]1CO` [#ID 103], for which the IC50 was found to be 320 nM in experiment [1] and 9000 nM in experiment [3] (setting [4]). In addition, the “GAA FP% (residual FP-signal)” value in experiment [2] is 18%.

In the case of `CCCCCCCCN1C[C@H](O)[C@@H](O)[C@H](O)[C@H]1CO` [#ID 33], the half-maximal inhibitory concentration (IC50) in experiment [1] (listed as 33) amounted to 540 nM; in experiment [3] (Table S2, 4-MU alpha glucoside substrate, listed as 33, read-out: IC50 on GANAB), 16000 nM. Moreover, the “GAA FP% (residual FP-signal)” value in experiment [2] (listed as 33) is reported as 28%.

Consider `OC[C@@H]1[C@@H](O)[C@H](O)[C@@H](O)CN1CCCCCOCc1ccc(-c2cccc(F)c2)cc1` [#ID 312], for which the figures for the half-inhibitory concentration (IC50) in experiment [1] and in experiment [3] (setting [4]) were 24 nM and 1000 nM, respectively. In addition, the “GAA FP% (residual FP-signal)” value in experiment [2] was determined as 0.9%.

With `CCCCOCCOCCN1C[C@H](O)[C@@H](O)[C@H](O)[C@H]1CO` [#ID 200], in experiment [1], the IC50 was determined as 3900 nM. In addition, the “GAA FP% (residual FP-signal)” value in experiment [2] worked out at 46%.

For `Cc1ccc(-c2ccc(COCCCCCN3C[C@H](O)[C@@H](O)[C@H](O)[C@H]3CO)cc2)cc1` [#ID 301], the IC50 in experiment [1] came out at 37 nM; in experiment [3] (setting [4]) it was 1600 nM. Further, in experiment [2], the “GAA FP% (residual FP-signal)” value was 0.5%.

On to `N#Cc1ccccc1-c1ccc(COCCCCCN2C[C@H](O)[C@@H](O)[C@H](O)[C@H]2CO)cc1` [#ID 328], for which the 50% inhibitory concentration (IC50) was 21 nM in experiment [1] and 1700 nM in experiment [3] (setting [4]). For the same compound, the “GAA FP% (residual FP-signal)” value in experiment [2] amounted to 0.7%.

With `OC[C@@H]1[C@@H](O)[C@H](O)[C@@H](O)CN1CCCCCOCc1ccc(-c2ccc3c(c2)OCCO3)cc1` [#ID 324], the IC50 in experiment [1] was found to be 12 nM; in experiment [3] (setting [4]) it was 570 nM. Further, the “GAA FP% (residual FP-signal)” value in experiment [2] came to 0.9%.

On to `OC[C@@H]1[C@H](O)[C@@H](O)[C@H](O)CN1CCOCc1ccccc1` [#ID 47], for which the concentration for half-maximal inhibition (IC50) in experiment [1] was found to be 550 nM; in experiment [3] (setting [4]), 4600 nM. Further, in experiment [2], the “GAA FP% (residual FP-signal)” value amounted to 34%.

For the compound `CC(C)(C)COCCOCCN1C[C@H](O)[C@@H](O)[C@H](O)[C@H]1CO` [#ID 89], the results for the IC50 in experiment [1] and in experiment [3] (setting [4]) were 730 nM and 1700 nM, respectively. The “GAA FP% (residual FP-signal)” value in experiment [2] is recorded as 24%.

In the case of `OC[C@@H]1[C@@H](O)[C@H](O)[C@@H](O)CN1CCCCCOCc1ccc(-c2ccc(F)nc2)cc1` [#ID 322], the values for the IC50 in experiment [1] and in experiment [3] (setting [4]) were 80 nM and 1700 nM, respectively. In addition, the “GAA FP% (residual FP-signal)” value in experiment [2] came to 0.8%.

For `CCCCCN1C[C@H](O)[C@@H](O)[C@H](O)[C@H]1CO` [#ID 297], the IC50 in experiment [1] was found to be 1700 nM. In addition, the “GAA FP% (residual FP-signal)” value in experiment [2] is on record as 12%.

Take `OC[C@H]1NC[C@H](O)[C@@H](O)[C@H]1O` [#ID 154]: the “GAA FP% (residual FP-signal)” value in experiment [2] was 2.4%.

As to `CCCCCCN1C[C@H](O)[C@@H](O)[C@H](O)[C@H]1CO` [#ID 29], in experiment [1] (listed as 29), the IC50 turned out to be 1500 nM. Also, the “GAA FP% (residual FP-signal)” value in experiment [2] (listed as 29) was found to be 49%.

For `O=S1(=O)O[C@@H]2[C@H](O)[C@@H](O)[C@H](O)[C@@H](CO)[C@@H]2O1` [Compound 12, 1,6-epi-cyclophellitol cyclosulfate, reference compound], the IC50 in experiment [2] (competitive FluoPol-ABPP, rhGAA 80 nM, ABP II 80 nM, pH 5.0, read-out: apparent IC50 (GAA)) is 33 nM.

For `OC[C@@H]1[C@@H](O)[C@H](O)[C@@H](O)CN1CCCCCOCC12CC3CC(CC(C3)C1)C2` [Compound 13], the “GAA FP% (residual FP-signal)” value in experiment [2] is on record as 8.9%. For the same compound, the IC50 is 5360 ± 570 nM in experiment [3] (4MU-α-glucoside substrate, pH 7.0, mean ± SD, 3 technical replicates, read-out: IC50 GANAB) and 5400 nM in experiment [3] (setting [4]).

On to `OC[C@@H]1[C@H](O)[C@@H](O)[C@H](O)CN1CCCCCOCc1ccc(-c2ccccc2)cc1` [#ID 122], for which the IC50 in experiment [1] worked out at 1300 nM. Also, the “GAA FP% (residual FP-signal)” value in experiment [2] was found to be 35%.

Regarding `OC[C@H]1N[C@H](C/C=C/CCOCC23CC4CC(CC(C4)C2)C3)[C@H](O)[C@@H](O)[C@@H]1O` [#ID 159], the IC50 in experiment [1] came to 450 nM. Also, the “GAA FP% (residual FP-signal)” value in experiment [2] was found to be 23%.

Consider `OC[C@@H]1[C@H](O)[C@H](O)[C@@H](O)CN1CCCCCOCC12CC3CC(CC(C3)C1)C2` [#ID 150], for which the “GAA FP% (residual FP-signal)” value in experiment [2] is 15%. Further, the IC50 in experiment [3] (setting [4]) worked out at 12000 nM.
